Test in all cases: NCI-60 cell line screen, 48 h
Test [1] deals with K-562 leukemia.
Test [2] relates to OVCAR-3 ovarian.
In test [3] the test system is HOP-62 NSCLC.
The test system of test [4] is UACC-62 melanoma.
The subject of test [5] is OVCAR-8 ovarian.
The subject of test [6] is BT-549 breast.
Test [7] relates to COLO 205 colon.
In test [8] the test system is DU-145 prostate.
Test [9] relates to CAKI-1 renal.
For test [10], the system named is SN12C renal.

Where “and” joins values, the source holds several entries; their conditions need not be identical. Identical values can stand only once.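 Values below derive from 48-hour exposures of cells grown in 96-well plates, with endpoints linearly interpolated between the two concentrations bracketing the appropriate inhibition level. GI50 is the concentration that inhibits growth by half. At the TGI there is no net growth.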

Turning to `COc1c(OC(C)C)cc2cc(O)c(C(=O)NC3Cc4ccc(c(Cl)n4)O[C@@H]4C=C5C#C/C(=C\C#CC6OC56C4OC4CC(C)(O)C(O)C(C)O4)C(OC4CC(O)C(N(C)C)C(C)O4)COC3=O)cc2c1OC` (some centres undefined), the GI50 in test [1] was > 36.3 µM and 0.823 µg/mL; in test [2], > 36.3 µM and 21.3 µg/mL; in test [3] it was 10.3 µM and 0.402 µg/mL; in test [4], 4.33 µM and 0.511 µg/mL; in [5] it was 26.7 µM and 1.18 µg/mL; in [7], > 36.3 µM and 0.345 µg/mL. Moreover, the GI50 in [9] was 0.897 µg/mL; in test [10], 17.7 µM and 0.718 µg/mL. In addition, the TGI in test [1] is > 36.3 µM and 37.5 µg/mL; in test [2], > 36.3 µM and 37.5 µg/mL; in test [3], > 36.3 µM and 1.74 µg/mL; in test [4], 21 µM and 7.44 µg/mL; in [5], > 36.3 µM and 37.5 µg/mL; in test [6] it was above 36.3 µM. The TGI in [7] is > 36.3 µM and 13.6 µg/mL; in test [8], above 36.3 µM; in test [9], > 36.3 µM and 37.5 µg/mL; in test [10], > 36.3 µM and 9.82 µg/mL.
Consider `CCN(Cc1ccc(F)cc1)c1ccc(CO)c(C(F)(F)F)c1`, for which the GI50 in [1] was 10.4 µM; in test [2], 6.91 µM; in [3] it was 9.23 µM; in test [4], 1.41 µM; in [5] it was 14.3 µM; in [6] it was 15.1 µM. The GI50 in test [7] is 14.4 µM; in [8], 16.7 µM; in test [9] it was 13.9 µM; in [10], 12.9 µM. In addition, the TGI is 52.1 µM in [1]; 19.6 µM in test [2]; 21.2 µM in test [3]; 7.33 µM in test [4]; 27.3 µM in test [5]; 28.3 µM in test [6]. Further, the TGI in test [7] was 27.5 µM; in [8], 31.8 µM; in test [9] it was 28.7 µM; in [10], 25.5 µM.
With `COc1c(CC=C(C)C)c(O)c(C(CC(C)C)c2c(O)c(CC=C(C)C)c(O)c(C(C)=O)c2O)c(O)c1C(C)=O` (centres undefined), the TGI in test [1] is 5.71 µM; in test [2], 12.5 µM; in test [3] it was 3.96 µM; in test [4] it was 2.22 µM; in [5] it was 10.3 µM; in test [6], 14.9 µM. The TGI in [7] is 4.7 µM; in test [8], 16.5 µM; in test [9] it was 11.7 µM; in [10] it was 6.84 µM.
Take `O=S(=O)(NCCCNc1cc(-c2cn(-c3ccccc3)nc2-c2cccc(O)c2)ccn1)c1ccc(F)cc1`: the GI50 in test [1] is 2.4 µM; in test [2], 3.28 µM; in test [3] it was 4.98 µM; in [4], 2.92 µM; in test [5], 4.15 µM; in test [6], 2.28 µM. The GI50 in [7] was 1.96 µM; in [8], 4.12 µM; in test [9] it was 4.56 µM; in [10] it was 4.32 µM. Moreover, the TGI amounted to 6.38 µM in test [1]; 14.9 µM in test [2]; 19.3 µM in test [3]; 12 µM in test [4]; 18.3 µM in test [5]; 7.78 µM in test [6]. Moreover, the TGI turned out to be 3.87 µM in test [7], 36.7 µM in [8], 44.6 µM in [9] and 28.2 µM in test [10].
As for `O=S(=O)(NCCCNc1nccc(-c2c(-c3ccc(F)cc3)nc3sccn23)n1)c1ccc(F)cc1`, the GI50 was 4.62 µM in test [1]; 24.8 µM in test [3]; 4.68 µM in [4]; 4.56 µM in test [5]; 3.9 µM in test [6]; 6.23 µM in [7]. In addition, the GI50 in test [8] was 10.8 µM; in test [9], 7.8 µM; in test [10], 9.04 µM. Besides, the TGI is above 100 µM in test [1]; above 100 µM in test [3]; 50.7 µM in [4]; above 100 µM in test [5]; 31.2 µM in [6]; above 100 µM in [7]. Besides, the TGI in test [8], in test [9] and in [10] was above 100 µM in each case.
Regarding `CC(C)N(Cc1ccc(F)cc1)c1ccc(CO)c(Cl)c1`, the GI50 was 0.468 µM in test [1]; 0.184 µM in [2]; 1.14 µM in test [3]; 0.0664 µM in test [4]; 10.6 µM in test [5]; 12.3 µM in [6]. The GI50 in [7] is 1.03 µM; in test [8] it was 11.1 µM; in test [9], 0.245 µM; in test [10], 10.8 µM. The TGI in test [1] was determined as 12.9 µM; in test [2], 0.623 µM; in test [3] it was 17.6 µM; in test [4] it was 0.4 µM; in [5] it was 25 µM; in test [6] it was 25.7 µM. The TGI in [7] came out at 7.17 µM; in test [8] it was 23.3 µM; in test [9] it was 2.02 µM; in test [10] it was 23.2 µM.
For `NCc1ccc(-c2nc(-c3ccc(Cl)c(O)c3)c(-c3ccncc3)[nH]2)cc1`, the GI50 is above 25 µM in test [1]; above 25 µM in test [2]; above 25 µM in test [3]; 2.53 µM in test [4]; above 25 µM in test [5]; above 25 µM in test [6]. The GI50 in test [7], in test [8], in test [9] and in test [10] was above 25 µM in each case. Besides, the TGI in test [1], in [2], in [3], in [4], in test [5] and in test [6] was above 25 µM throughout. Moreover, the TGI in test [7], in [8], in [9] and in [10] was above 25 µM each time.
Consider `C/C(=N\NC(=S)N1CCN(c2ccccn2)CC1)c1ncccn1`, for which the TGI was 1.35 µM and 4.46 µM in test [1]; 7.5 µM and 15.3 µM in test [2]; 2.09 µM and 7.05 µM in test [3]; 0.58 µM and 4.19 µM in test [4]; 5.4 µM and 16.4 µM in test [5]; 18.8 µM in test [6]. In addition, the TGI in test [8] turned out to be 18.8 µM; in test [9], 16 µM; in test [10], 18.1 µM. The GI50 in test [2] is 0.213 µM; in test [3], 0.0865 µM; in test [4], 0.057 µM; in [5] it was 0.0154 µM; in test [6], 0.0936 µM; in [7] it was below 0.0245 µM. In addition, the GI50 in test [8] was 3.17 µM; in test [9], 0.447 µM; in test [10], 0.0709 µM.

The values above are taken from PubChem BioAssay (NCI).
